The values below come from US20260159536A1, “AKR1C3-ACTIVATED DNA ALKYLATING AGENT, AND MEDICAL APPLICATION THEREOF” (ASCENTAWITS PHARMACEUTICALS, LTD., priority 2021, published 2026).

Series [1] relates to HuPrime model PA1222 human pancreatic cancer. Put plainly: In vivo pharmacodynamics, pancreatic cancer PA1222 PDX model. Particulars: for Tumor volume: 120 mg/kg i.p. The protocol:
The test was divided into groups of test drug Gemcitabine 120 mg/kg group, test drug Compound A 10 mg/kg and 7.5% anhydrous ethanol+7.5% polyoxyethylene (35) castor oil+85% glucose injection DSW (pH 7.4) vehicle control group, a total of 3 groups, with 5 mice per group. […] Test drug Gemcitabine (Gemcitabine) 120 mg/kg group was administered intraperitoneally, once a week for three consecutive weeks.

For series [2], the target named is T1, P-gp (Homo sapiens, UniProt P08183).
T1 construct: expressed in transfected cells; host or cells: MDCKII-MDR1 cells
T1 sequence (P08183 whole entry): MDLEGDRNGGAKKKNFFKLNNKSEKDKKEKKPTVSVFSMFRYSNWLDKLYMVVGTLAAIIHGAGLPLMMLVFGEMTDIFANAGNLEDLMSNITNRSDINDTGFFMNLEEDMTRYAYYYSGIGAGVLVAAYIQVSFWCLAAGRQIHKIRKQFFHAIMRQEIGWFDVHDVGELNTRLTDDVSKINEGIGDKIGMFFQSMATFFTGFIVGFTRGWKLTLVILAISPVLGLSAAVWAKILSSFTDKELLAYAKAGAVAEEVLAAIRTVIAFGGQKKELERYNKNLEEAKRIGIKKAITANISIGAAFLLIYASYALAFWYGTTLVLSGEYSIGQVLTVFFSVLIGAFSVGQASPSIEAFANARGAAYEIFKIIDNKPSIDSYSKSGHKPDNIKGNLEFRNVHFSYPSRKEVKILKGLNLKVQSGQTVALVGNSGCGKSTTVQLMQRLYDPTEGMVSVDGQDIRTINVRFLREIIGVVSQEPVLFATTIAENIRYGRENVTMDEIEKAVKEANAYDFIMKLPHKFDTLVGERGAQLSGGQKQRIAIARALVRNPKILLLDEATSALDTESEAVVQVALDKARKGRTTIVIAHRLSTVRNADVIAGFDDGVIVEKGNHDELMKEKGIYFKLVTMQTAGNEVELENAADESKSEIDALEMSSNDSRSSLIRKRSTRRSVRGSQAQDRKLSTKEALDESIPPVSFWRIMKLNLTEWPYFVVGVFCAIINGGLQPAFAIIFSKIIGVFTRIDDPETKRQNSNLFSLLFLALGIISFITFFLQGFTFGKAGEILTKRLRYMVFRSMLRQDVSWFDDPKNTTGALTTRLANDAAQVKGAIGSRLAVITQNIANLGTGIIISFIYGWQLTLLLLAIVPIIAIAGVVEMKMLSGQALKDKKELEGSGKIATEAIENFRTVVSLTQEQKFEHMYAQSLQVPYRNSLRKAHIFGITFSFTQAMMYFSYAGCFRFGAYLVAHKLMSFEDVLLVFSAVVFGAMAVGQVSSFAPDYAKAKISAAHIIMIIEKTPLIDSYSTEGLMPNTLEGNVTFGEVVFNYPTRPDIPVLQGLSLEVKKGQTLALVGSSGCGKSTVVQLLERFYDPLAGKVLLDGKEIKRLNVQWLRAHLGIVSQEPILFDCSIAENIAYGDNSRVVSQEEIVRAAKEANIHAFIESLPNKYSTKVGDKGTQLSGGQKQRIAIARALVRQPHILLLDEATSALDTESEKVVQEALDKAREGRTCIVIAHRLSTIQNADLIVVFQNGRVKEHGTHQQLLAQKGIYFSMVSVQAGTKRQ
Description: P-gp substrate evaluation, MDCKII-MDR1 penetration test with or without Verapamil. Particulars: Verapamil 0 μM. The class given is in vitro ADME. The protocol:
The conditions of the incubator were set as 37° C., 5% CO2, and 95% of the relative humidity.
After that, the MDCKII-MDR1 cells can be used for the penetration test.
(1) MDCKII-MDR1 transwell culture plate was taken out from the incubator.
(6) The upper and lower transportations were pooled and then incubated at 37° C. for 2 h.
After the sample tubes were vortexed for 10 min, and centrifuged at 3220 g for 30 min. […] Each sample was adopted to the three parallel incubation.
Efflux Ratio was calculated by the following formula: […]
Recovery was calculated by the following formula: […]

The test system of series [3] is HuPrime model LU2505 human lung cancer. Put plainly: In vivo pharmacodynamics, lung cancer LU2505 PDX model. Further details: species or system BALB/c nude mice. The note with it: for Tumor volume: 20 mg/kg i.p.
Series [4] has as its system human lung cancer NCI-H460-Luc2 cells (intracranial). Put plainly: In vivo pharmacodynamics, NCI-H460-Luc2 intracranial inoculation CDX model. Further details: species or system BALB/c nude mice. Particulars: 20 mg/kg, i.p. QWx3; Day 11. The protocol:
The experiment was divided into groups of test drug Paclitaxel 20 mg/kg group, Compound A 2 mg/kg, 4 mg/kg and 8 mg/kg groups and 10% ethanol+10% polyoxyethylene castor oil+80% glucose injection DSW (pH 7.42) vehicle control group (Vehicle group), with 6 mice per group. […] The positive drug Paclitaxel 20 mg/kg group was administered by intraperitoneal injection and administered once a week for 3 weeks.
The pharmacodynamic analysis of each group in the human NCI-H460-luc intracranial inoculation model was performed based on the measured bioluminescence values on day 11 after administration, and the results were shown in Table 14.

Series [5] concerns HuPrime model LU0884 human lung cancer. Put plainly: In vivo pharmacodynamics, lung cancer LU0884 PDX model. More on the design: species or system BALB/c nude mice. The note with it: for Size of tumor volume: Group 2, Paclitaxel 20 mg/kg.
Series [6] in a line: Chiral stability under long-term and accelerated storage conditions. The series is classed as physicochemical. Particulars: for colour and chirality after storage: −20° C., 5° C., 25° C./60% RH 3 months, 40° C./75% RH 1 month. As for the experimental part:
Isomer stability under long-term and accelerated conditions was studied.
Compound A and isomers A-P1 and A-P2 were investigated for traits and isomeric stability at −20±5° C., 5° C.±3° C., 25° C.±2° C. (60%±5% RH) and 40° C.±2° C.

Series [7] concerns human lung cancer NCI-H460 cells. Description: In vivo pharmacodynamics, NCI-H460 subcutaneous xenograft model. The note with it: for Tumor volume: 100 mg/kg i.p. More on the design: species or system BALB/c nude mice.
[8] abbreviates: 20 mg/kg i.p. every four days x4, Day 28.
Where [9] appears, read: Paclitaxel 20 mg/kg, Q4Dx4, i.p., Day 28.
[10] abbreviates: 25° C. ± 2° C./60% ± 5% RH, 1 month.
[11] abbreviates: 25° C. ± 2° C./60% ± 5% RH, 3 months.
The mark [12] stands for this setting: 40° C. ± 2° C./75% ± 5% RH, 1 month.

For the compound `Nc1ccn([C@@H]2O[C@H](CO)[C@@H](O)C2(F)F)c(=O)n1` [Gemcitabine, reference compound], the Tumor volume was 111.91 mm^3 in series [1] (Day 0); 136.17 mm^3 in series [1] (Day 3); 153.75 mm^3 in series [1] (Day 7); 157.55 mm^3 in series [1] (Day 10); 147.44 mm^3 in series [1] (Day 14); 136.71 mm^3 in series [1] (Day 17). Further, the Tumor volume in series [1] (Day 21) is on record as 138.01 mm^3; in series [1] (Day 24), 153.69 mm^3; in series [1] (Day 28), 166.11 mm^3. Moreover, the “Relative tumor volume (x ± S)” value in series [1] (120 mg/kg, QWx3, i.p., Day 28) is 1.49 ± 0.19. Besides, the “T/C (%)” value in series [1] (120 mg/kg, QWx3, i.p., Day 28) was 42.83%. Further, the “TGI (%)” value in series [1] (120 mg/kg, QWx3, i.p., Day 28) stood at 57.17%. Moreover, in series [1] (120 mg/kg, QWx3, i.p., Day 28), the “Tumor volume (x ± S)” value was determined as 166.11 ± 24.40.

Regarding `COc1cc2nc(N3CCN(C(=O)c4ccco4)CC3)nc(N)c2cc1OC` [Prazosin], the “Efflux Ratio” value in series [2] was 2.90.

Consider `CC(=O)O[C@H]1C(=O)[C@@]2(C)[C@H]([C@H](OC(=O)c3ccccc3)[C@]3(O)C[C@H](OC(=O)[C@H](O)[C@@H](NC(=O)c4ccccc4)c4ccccc4)C(C)=C1C3(C)C)[C@]1(OC(C)=O)CO[C@@H]1C[C@@H]2O` [Paclitaxel, reference compound], for which the “Relative tumor volume (x ± S)” value is listed as 2.29 ± 1.37 in series [3] (setting [8]) and 4.72 ± 1.26 in series [5] (Paclitaxel 20 mg/kg, Q4Dx4, i.p., Day 28, mean ± standard error). In addition, the results for the “T/C (%)” value in series [3] (setting [8]), in series [4] and in series [5] (setting [9]) were 21.40%, 130.82% and 78.79%, respectively. The “TGI (%)” value in series [3] (setting [8]) is given as 78.60%; in series [4], −62.45%; in series [5] (setting [9]), 21.21%. Also, the “Tumor volume (x ± S)” value in series [3] (20 mg/kg i.p. every four days x4, Day 28, in mm³ (unit assumed)) turned out to be 250.47 ± 157.81; in series [5] (Paclitaxel 20 mg/kg, Q4Dx4, i.p., Day 28, mean ± standard error, in mm³ (unit assumed)), 528.88 ± 147.69. The Tumor volume in series [3] (Day 0) turned out to be 103.12 mm^3; in series [3] (Day 4), 133.63 mm^3; in series [3] (Day 7) it was 133.14 mm^3; in series [3] (Day 11), 132.14 mm^3; in series [3] (Day 14), 164.42 mm^3; in series [3] (Day 18), 207.89 mm^3. Moreover, the results for the Tumor volume in series [3] (Day 21), in series [3] (Day 25) and in series [3] (Day 28) were 238.63 mm^3, 231.63 mm^3 and 250.47 mm^3, respectively. Besides, in series [4], the “Bioluminescence Value (Day 11)” value is reported as 4184.52 ± 1679.77 ×10^5 photon/second. For the same compound, the “Size of tumor volume” value in series [5] (Day 0) was determined as 110.11 mm^3; in series [5] (Day 4) it was 157.57 mm^3; in series [5] (Day 7), 229.87 mm^3; in series [5] (Day 11), 250.46 mm^3; in series [5] (Day 14), 292.52 mm^3; in series [5] (Day 18), 381.53 mm^3. Besides, the results for the “Size of tumor volume” value in series [5] (Day 21), in series [5] (Day 25) and in series [5] (Day 28) were 402.62 mm^3, 492.50 mm^3 and 528.88 mm^3, respectively. Moreover, the tumor inhibitory effect result in series [5] (Paclitaxel 20 mg/kg, Compound A 2.5, 5, 10 mg/kg) is “weak tumor inhibitory effect”.

Take `O=[N+]([O-])c1ccc(C(OP(=O)(N2CC2)N2CC2)C(F)(F)F)cc1Oc1ccc(-c2ccc(F)cc2)c(F)c1` (single isomer, unassigned) [A-P1]: the “Isomer peak A-P1” value in series [6] (0 month) was 99.92%; in series [6] (5° C. ± 3° C., 1 month) it was 99.92%; in series [6] (5° C. ± 3° C., 3 months) it was 99.92%; in series [6] (setting [10]) it was 99.92%; in series [6] (setting [11]) it was 99.92%; in series [6] (setting [12]), 99.91%. For the same compound, in series [6] (−20 ± 5° C., 3 months), the “Isomer peak A-P1” value was 99.92%. Also, the “Isomer peak A-P2” value in series [6] (0 month) came out at 0.08%; in series [6] (5° C. ± 3° C., 1 month) it was 0.08%; in series [6] (5° C. ± 3° C., 3 months), 0.08%; in series [6] (setting [10]) it was 0.08%; in series [6] (setting [11]), 0.08%; in series [6] (setting [12]) it was 0.09%. For the same compound, the “Isomer peak A-P2” value in series [6] (−20 ± 5° C., 3 months) is reported as 0.08%. For the same compound, the Isomer transformation in series [6] (5° C. ± 3° C., 1 month) is 0.00%; in series [6] (5° C. ± 3° C., 3 months) it was 0.00%; in series [6] (setting [10]), 0.00%; in series [6] (setting [11]) it was 0.00%; in series [6] (setting [12]), 0.01%; in series [6] (−20 ± 5° C., 3 months), 0.00%. Moreover, the “colour and chirality after storage” value in series [6] is listed as “essentially no change”.

Regarding `N.N.O=C([O-])C1(C(=O)[O-])CCC1.[Pt+2]` [Carboplatin, reference compound], the Tumor volume is 145.46 mm^3 in series [7] (Day 7); 262.15 mm^3 in series [7] (Day 10); 409.97 mm^3 in series [7] (Day 14); 529.44 mm^3 in series [7] (Day 17); 761.56 mm^3 in series [7] (Day 21); 960.42 mm^3 in series [7] (Day 24). The figures for the Tumor volume in series [7] (Day 28), in series [7] (Day 31) and in series [7] (Day 35) were 1073.28 mm^3, 1230.93 mm^3 and 1577.99 mm^3, respectively. In series [7] (100 mg/kg, QWx3, i.p., Day 31), the “Relative tumor volume (x ± S)” value amounted to 8.58 ± 1.16. The “T/C (%)” value in series [7] (100 mg/kg, QWx3, i.p., Day 31) is 64.81%. In addition, the “TGI (%)” value in series [7] (100 mg/kg, QWx3, i.p., Day 31) is recorded as 35.19%. Also, the “Tumor volume (x ± S)” value in series [7] (100 mg/kg, QWx3, i.p., Day 31, in mm³ (unit assumed)) is 1230.93 ± 258.17.

On to `O=[N+]([O-])c1ccc(C(OP(=O)(N2CC2)N2CC2)C(F)(F)F)cc1Oc1ccc(-c2ccc(F)cc2)c(F)c1` (single isomer, unassigned) [A-P2], for which the “Isomer peak A-P1” value in series [6] (0 month) is listed as 0.25%; in series [6] (5° C. ± 3° C., 1 month), 0.25%; in series [6] (5° C. ± 3° C., 3 months), 0.25%; in series [6] (setting [10]), 0.25%; in series [6] (setting [11]) it was 0.25%; in series [6] (setting [12]), 0.26%. Moreover, in series [6] (−20 ± 5° C., 3 months), the “Isomer peak A-P1” value is given as 0.26%. Further, the “Isomer peak A-P2” value in series [6] (0 month) amounted to 99.75%; in series [6] (5° C. ± 3° C., 1 month) it was 99.75%; in series [6] (5° C. ± 3° C., 3 months), 99.75%; in series [6] (setting [10]), 99.75%; in series [6] (setting [11]), 99.75%; in series [6] (setting [12]), 99.74%. In addition, in series [6] (−20 ± 5° C., 3 months), the “Isomer peak A-P2” value was 99.74%. Also, the Isomer transformation in series [6] (5° C. ± 3° C., 1 month) is given as 0.00%; in series [6] (5° C. ± 3° C., 3 months) it was 0.00%; in series [6] (setting [10]) it was 0.00%; in series [6] (setting [11]), 0.00%; in series [6] (setting [12]), 0.01%; in series [6] (−20 ± 5° C., 3 months), −0.01%. Further, the “colour and chirality after storage” value in series [6] was “essentially no change”.
